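All cell lines were grown in 96-well plates and treated with compound for 48 hours. GI50 marks 50% less growth.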 Active and inactive are the calls of the source. Cut-off read from the data, not from the text of the source: active = GI50 up to about 1.1 µM and inactive = higher.
Columns and labels:
Assay in all cases: NCI anticancer screen, dose series, 48 h
U-251 = system: U-251
LOX IMVI = system: LOX IMVI
NCI-H23 = system: NCI-H23
OVCAR-3 = system: OVCAR-3
A549 = system: A549
SK-MEL-5 = system: SK-MEL-5
SW-620 = system: SW-620
UO-31 = system: UO-31
HCT-116 = system: HCT-116
SK-MEL-2 = system: SK-MEL-2
SN12C = system: SN12C
UACC-62 = system: UACC-62
HT-29 = system: HT-29
SR = system: SR
COLO 205 = system: COLO 205
SF-295 = system: SF-295
HOP-92 = system: HOP-92

Measured: GI50

CCOC(=O)CNC(=O)c1nc[nH]c1/N=N/N(C)C
inactive: U-251 > 100 µM | LOX IMVI > 100 µM | NCI-H23 > 100 µM | OVCAR-3 > 100 µM | A549 > 100 µM | SK-MEL-5 > 100 µM | SW-620 > 100 µM | UO-31 > 100 µM | HCT-116 > 100 µM | SK-MEL-2 > 100 µM | SN12C > 100 µM | UACC-62 > 100 µM | HT-29 > 100 µM | SR > 100 µM | COLO 205 > 100 µM | SF-295 > 100 µM

CC(=O)NNc1nc(C)c(C(=O)/C=C/c2ccc(NC(C)=O)cc2)s1
inactive: U-251 > 100 µM | LOX IMVI > 100 µM | NCI-H23 > 100 µM | OVCAR-3 > 100 µM | A549 > 100 µM | SK-MEL-5 > 100 µM | SW-620 > 100 µM | UO-31 > 100 µM | SK-MEL-2 > 100 µM | SN12C > 100 µM | UACC-62 > 100 µM | HOP-92 > 100 µM | HT-29 > 100 µM | COLO 205 > 100 µM | SF-295 > 100 µM

CC1(C)OC2COC3(CNO)OC(C)(C)OC3C2O1 (stereo not given)
inactive: U-251 > 100 µM | LOX IMVI > 100 µM | NCI-H23 > 100 µM | OVCAR-3 > 100 µM | A549 > 100 µM | SK-MEL-5 > 100 µM | SW-620 > 100 µM | UO-31 > 100 µM | HCT-116 > 100 µM | SK-MEL-2 > 100 µM | SN12C > 100 µM | UACC-62 > 100 µM | HOP-92 65.8 µM | HT-29 > 100 µM | COLO 205 > 100 µM | SF-295 > 100 µM

C/C(CC(=O)NCCc1ccccc1)=N\NC(=O)C[n+]1ccccc1
inactive: U-251 > 100 µM | LOX IMVI > 100 µM | NCI-H23 > 100 µM | OVCAR-3 > 100 µM | A549 > 100 µM | SK-MEL-5 > 100 µM | SW-620 > 100 µM | UO-31 > 100 µM | HCT-116 > 100 µM | SK-MEL-2 > 100 µM | UACC-62 > 100 µM | HOP-92 > 100 µM | HT-29 > 100 µM | COLO 205 > 100 µM | SF-295 > 100 µM

[O-][S+]1c2ccccc2NC(c2ccc3ccccc3c2)CC1c1ccccc1 (stereo not given)
inactive: LOX IMVI 17.9 µM | NCI-H23 16.7 µM | OVCAR-3 15.6 µM | A549 30.1 µM | SK-MEL-5 17.5 µM | SW-620 20 µM | UO-31 18 µM | SK-MEL-2 92.7 µM | SN12C 32.6 µM | UACC-62 37.1 µM | HT-29 22.3 µM | COLO 205 29.9 µM | SF-295 19.1 µM

C[Si](C)(C)CC(N)=O
inactive: U-251 > 100 µM | LOX IMVI > 100 µM | OVCAR-3 > 100 µM | A549 > 100 µM | SK-MEL-5 > 100 µM | SW-620 > 100 µM | UO-31 > 100 µM | HCT-116 > 100 µM | SK-MEL-2 > 100 µM | SN12C > 100 µM | UACC-62 > 100 µM | HOP-92 > 100 µM | HT-29 > 100 µM | COLO 205 > 100 µM | SF-295 > 100 µM

O=c1cc(-c2ccccc2)[nH]c2c(Cl)cccc12
inactive: U-251 87.5 µM | LOX IMVI 9.35 µM | NCI-H23 63.2 µM | OVCAR-3 24.5 µM | A549 7.98 µM | SK-MEL-5 5.86 µM | SW-620 3.86 µM | UO-31 34.2 µM | HCT-116 7.24 µM | SK-MEL-2 6.97 µM | SN12C 46.2 µM | UACC-62 4.55 µM | HT-29 20.8 µM | SR 7.53 µM | COLO 205 29.7 µM | SF-295 20.1 µM

CN(C)c1ccc(/C=C2\N=C(c3ccc(N)cc3)OC2=O)cc1
inactive: U-251 > 100 µM | LOX IMVI > 100 µM | NCI-H23 > 100 µM | OVCAR-3 > 100 µM | A549 > 100 µM | SK-MEL-5 > 100 µM | SW-620 > 100 µM | UO-31 > 100 µM | SK-MEL-2 > 100 µM | SN12C > 100 µM | UACC-62 > 100 µM | HOP-92 > 100 µM | HT-29 > 100 µM | COLO 205 > 100 µM | SF-295 > 100 µM

CC1CC2(S(=O)(=O)c3ccccc3)ON1CC2S(=O)(=O)c1ccccc1 (stereo not given)
inactive: U-251 > 100 µM | LOX IMVI > 100 µM | NCI-H23 > 100 µM | OVCAR-3 > 100 µM | A549 > 100 µM | SW-620 > 100 µM | UO-31 > 100 µM | HCT-116 > 100 µM | SK-MEL-2 > 100 µM | SN12C > 100 µM | UACC-62 > 100 µM | HT-29 > 100 µM | SR > 100 µM | COLO 205 > 100 µM | SF-295 > 100 µM

N#CC(C(=O)CCC(=O)Nc1ccc(Cl)cc1)c1ccccc1Cl (stereo not given)
inactive: U-251 > 100 µM | NCI-H23 93.1 µM | OVCAR-3 > 100 µM | A549 > 100 µM | SK-MEL-5 > 100 µM | SW-620 > 100 µM | UO-31 > 100 µM | HCT-116 61.1 µM | SK-MEL-2 51.6 µM | SN12C > 100 µM | UACC-62 16 µM | HOP-92 > 100 µM | COLO 205 > 100 µM | SF-295 > 100 µM
